Reference: patent US12544391B2, “CD73 inhibitors” (ORIC Pharmaceuticals, Inc., priority 2019, dated 2026)

Target: T1, CD73 (Homo sapiens, UniProt P21589)
T1 sequence (P21589 27-549): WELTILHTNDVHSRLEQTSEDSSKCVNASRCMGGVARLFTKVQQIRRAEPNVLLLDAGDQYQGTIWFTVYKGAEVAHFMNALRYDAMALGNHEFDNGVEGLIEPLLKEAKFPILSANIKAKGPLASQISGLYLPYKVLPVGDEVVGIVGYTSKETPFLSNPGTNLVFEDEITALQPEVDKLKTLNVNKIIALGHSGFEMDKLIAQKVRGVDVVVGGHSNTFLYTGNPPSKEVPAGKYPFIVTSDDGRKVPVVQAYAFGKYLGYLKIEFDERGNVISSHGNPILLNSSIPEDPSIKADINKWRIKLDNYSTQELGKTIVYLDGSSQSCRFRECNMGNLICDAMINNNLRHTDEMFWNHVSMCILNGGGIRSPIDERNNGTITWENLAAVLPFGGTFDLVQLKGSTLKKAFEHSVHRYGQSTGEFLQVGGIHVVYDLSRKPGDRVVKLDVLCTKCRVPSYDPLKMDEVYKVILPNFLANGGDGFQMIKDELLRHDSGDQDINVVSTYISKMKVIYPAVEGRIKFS
Test: CD73 biochemical assay, Malachite Green detection of AMP hydrolysis
Settings: CD73 320 pM, AMP 15 μM, Malachite Green readout
Protocol: Assay Reaction Conditions
• Assay Volume: 70 μl • Reaction Volume: 50 μl • CD73: 0.3208 nM • AMP: 15 μM • Assay Buffer: 2 5 mM Tris-HCL, pH 7.4, 0.01% Brij-35, 0.01% BSA, 5 mM MgCl2 Assay Procedure:
A clear 384 well plate was used in this assay.
Made dose titration of testing compounds in assay buffer, 10 points ½ log titrations in duplicates starting at 100 μM. Total volume for each well was 25 μl, with CD73 then added to each well for a final concentration of 320 pM. The solution was then incubated at RT for 15 min. 25 μl of AMP was added to each well for a final concentration of 15 μM, and then incubated at rt for 10 min. 10 μl of Malachite Green Reagent A was then added and allowed to incubate at rt for 10 min. 10 μl of Malachite Green Reagent B was then added and allowed to incubate at rt for 45 min. The absorbance for each sample was read on an Envision plate reader using excitation filter: Cy5 […].
The ability of the compounds disclosed herein to inhibit CD73 activity was quantified and the respective IC50 values were determined. Table 2 provides the biochemical IC50 values of compounds disclosed herein.

Row | IC50 | Structure (SMILES)
1 | ≤ 0.5 nM | O=P(O)(O)C(COCc1nnn[nH]1)(COCc1nnn[nH]1)OC[C@H]1O[C@@H](c2ccc3c(NC4CCCC4)nc(Cl)nn23)[C@H](O)[C@@H]1O [Example 28, (1,3-bis((1H-tetrazol-5-yl)methoxy)-2-(((2R,3S,4R,5S)-5-(2-chloro-4-(cyclopentylamino)pyrrolo[2,1-f][1,2,4]triazin-7-yl)-3,4-dihydroxytetrahydrofuran-2-yl)methoxy)propan-2-yl)phosphonic acid]
2 | ≤ 0.5 nM | O=P(O)(O)[C@](COCc1nn[nH]n1)(COCC1CC1)OC[C@H]1O[C@@H](c2ccc3c(NC4CCCC4)nc(Cl)nn23)[C@H](O)[C@@H]1O [Example 35, ((S)-1-((2H-tetrazol-5-yl)methoxy)-2-(((2R,3S,4R,5S)-5-(2-chloro-4-(cyclopentylamino)pyrrolo[2,1-f][1,2,4]triazin-7-yl)-3,4-dihydroxytetrahydrofuran-2-yl)methoxy)-3-(cyclopropylmethoxy)propan-2-yl)phosphonic acid]
3 | ≤ 0.5 nM | O=c1[nH]c(COC[C@@](CO)(OC[C@H]2O[C@@H](c3ccc4c(NCC5CC5)nc(Cl)nn34)[C@H](O)[C@@H]2O)P(=O)(O)O)no1 [Example 44, ((S)-2-(((2R,3S,4R,5S)-5-(2-chloro-4-((cyclopropylmethyl)amino)pyrrolo[2,1-f][1,2,4]triazin-7-yl)-3,4-dihydroxytetrahydrofuran-2-yl)methoxy)-1-hydroxy-3-((5-oxo-4,5-dihydro-1,2,4-oxadiazol-3-yl)methoxy)propan-2-yl)phosphonic acid]
4 | 1 to 100 nM | COC[C@@](Cc1nn[nH]n1)(OC[C@H]1O[C@@H](c2ccc3c(NC4CCCC4)nc(Cl)nn23)[C@H](O)[C@@H]1O)P(=O)(O)O [Example 4, ((S)-2-(((2R,3S,4R,5S)-5-(2-Chloro-4-(cyclopentylamino)pyrrolo[2,1-f][1,2,4]triazin-7-yl)-3,4-dihydroxytetrahydrofuran-2-yl)methoxy)-1-methoxy-3-(2H-tetrazol-5-yl)propan-2-yl)phosphonic acid]
5 | 0.5 to 1 nM | O=P(O)(O)C(CO)(CO)OC[C@H]1O[C@@H](c2cnn3c(NC4CCCC4)cc(Cl)nc23)[C@H](O)[C@@H]1O [Example 17, (2-(((2R,3S,4R,5S)-5-(5-Chloro-7-(cyclopentylamino)pyrazolo[1,5-a]pyrimidin-3-yl)-3,4-dihydroxytetrahydrofuran-2-yl)methoxy)-1,3-dihydroxypropan-2-yl)phosphonic acid]
6 | ≤ 0.5 nM | COC[C@@](OC[C@H]1O[C@@H](c2ccc3c(NC4CCCC4)nc(Cl)nn23)[C@H](O)[C@@H]1O)(C(=O)O)P(=O)(O)O [Example 42, (S)-2-(((2R,3 S,4R,5S)-5-(2-chloro-4-(cyclopentylamino)pyrrolo[2,1-f][1,2,4]triazin-7-yl)-3,4-dihydroxytetrahydrofuran-2-yl)methoxy)-3-methoxy-2-phosphonopropanoic acid]
7 | ≤ 0.5 nM | O=P(O)(O)[C@@](CO)(Cc1nn[nH]n1)OC[C@H]1O[C@@H](c2ccc3c(NC4CCCC4)nc(Cl)nn23)[C@H](O)[C@@H]1O [Example 1, ((R)-2-(((2R,3S,4R,5S)-5-(2-Chloro-4-(cyclopentylamino)pyrrolo[2,1-f][1,2,4]triazin-7-yl)-3,4-dihydroxytetrahydrofuran-2-yl)methoxy)-1-hydroxy-3-(2H-tetrazol-5-yl)propan-2-yl)phosphonic acid]
8 | 1 to 100 nM | CCOC(=O)COCC(CO)(OC[C@H]1O[C@@H](c2ccc3c(NC4CCCC4)nc(Cl)nn23)[C@H](O)[C@@H]1O)P(=O)(O)O (stereo partly drawn) [Example 24, (2-(((2R,3S,4R,5S)-5-(2-chloro-4-(cyclopentylamino)pyrrolo[2,1-f][1,2,4]triazin-7-yl)-3,4-dihydroxytetrahydrofuran-2-yl)methoxy)-1-(2-ethoxy-2-oxoethoxy)-3-hydroxypropan-2-yl)phosphonic acid]
9 | 1 to 100 nM | C[C@](CO)(OC[C@H]1O[C@@H](c2ccc3c(NC4CCCC4)nc(Cl)nn23)[C@H](O)[C@@H]1O)P(=O)(O)O [Example 33, ((S)-2-(((2R,3S,4R,5S)-5-(2-chloro-4-(cyclopentylamino)pyrrolo[2,1-f][1,2,4]triazin-7-yl)-3,4-dihydroxytetrahydrofuran-2-yl)methoxy)-1-hydroxypropan-2-yl)phosphonic acid]
10 | ≤ 0.5 nM | O=P(O)(O)[C@](CO)(COCc1nn[nH]n1)OC[C@H]1O[C@@H](c2ccc3c(N[C@@H]4CCc5ccccc54)nc(Cl)nn23)[C@H](O)[C@@H]1O [Example 40, ((R)-1-((2H-tetrazol-5-yl)methoxy)-2-(((2R,3S,4R,5S)-5-(2-chloro-4-(((R)-2,3-dihydro-1H-inden-l-yl)amino)pyrrolo[2,1-f][1,2,4]triazin-7-yl)-3,4-dihydroxytetrahydrofuran-2-yl)methoxy)-3-hydroxypropan-2-yl)phosphonic acid]
11 | ≤ 0.5 nM | COC[C@](COCC(=O)O)(OC[C@H]1O[C@@H](c2ccc3c(NC4CCCC4)nc(Cl)nn23)[C@H](O)[C@@H]1O)P(=O)(O)O [Example 25, 2-((S)-2-(((2R,3S,4R,5S)-5-(2-chloro-4-(cyclopentylamino)pyrrolo[2,1-f][1,2,4]triazin-7-yl)-3,4-dihydroxytetrahydrofuran-2-yl)methoxy)-3-methoxy-2-phosphonopropoxy)acetic acid]
12 | 0.5 to 1 nM | COCC(OC[C@H]1O[C@@H](c2ccc3c(NC4CCCC4)nc(Cl)nn23)[C@H](O)[C@@H]1O)P(=O)(O)O (stereo partly drawn) [Example 14, (1-(((2R,3S,4R,5S)-5-(2-chloro-4-(cyclopentylamino)pyrrolo[2,1-f][1,2,4]triazin-7-yl)-3,4-dihydroxytetrahydrofuran-2-yl)methoxy)-2-methoxyethyl)phosphonic acid]
13 | ≤ 0.5 nM | O=P(O)(O)[C@@](CO)(COCc1nn[nH]n1)OC[C@H]1O[C@@H](c2ccc3c(N[C@@H]4CCc5ccccc54)nc(Cl)nn23)[C@H](O)[C@@H]1O [Example 41, ((S)-1-((2H-tetrazol-5-yl)methoxy)-2-(((2R,3S,4R,5S)-5-(2-chloro-4-(((R)-2,3-dihydro-1H-inden-l-yl)amino)pyrrolo[2,1-f][1,2,4]triazin-7-yl)-3,4-dihydroxytetrahydrofuran-2-yl)methoxy)-3-hydroxypropan-2-yl)phosphonic acid]
14 | ≤ 0.5 nM | COC[C@](CO)(OC[C@H]1O[C@@H](c2ccc3c(NC4CCCC4)nc(Cl)nn23)[C@H](O)[C@@H]1O)P(=O)(O)O [Example 6, ((R)-2-(((2R,3S,4R,5S)-5-(2-Chloro-4-(cyclopentylamino)pyrrolo[2,1-f][1,2,4]triazin-7-yl)-3,4-dihydroxytetrahydrofuran-2-yl)methoxy)-1-hydroxy-3-methoxypropan-2-yl)phosphonic acid]
15 | ≤ 0.5 nM | O=P(O)(O)C(CO)(COCc1nnn[nH]1)OC[C@H]1O[C@@H](c2cnn3c(NC4CCCC4)cc(Cl)nc23)[C@H](O)[C@@H]1O (stereo partly shown) [Example 38]
16 | ≤ 0.5 nM | O=P(O)(O)C(CO)(COCc1nn[nH]n1)OC[C@H]1O[C@@H](c2ccc3c(NC4CCCC4)nc(Cl)nn23)[C@H](O)[C@@H]1O (stereo partly drawn) [Example 20, (1-((2H-tetrazol-5-yl)methoxy)-2-(((2R,3S,4R,5S)-5-(2-chloro-4-(cyclopentylamino)pyrrolo[2,1-f][1,2,4]triazin-7-yl)-3,4-dihydroxytetrahydrofuran-2-yl)methoxy)-3-hydroxypropan-2-yl)phosphonic acid]
17 | ≤ 0.5 nM | O=P(O)(O)[C@@](CO)(COCc1nn[nH]n1)OC[C@H]1O[C@@H](c2ccc3c(NCC4CCC4)nc(Cl)nn23)[C@H](O)[C@@H]1O [Example 52, ((S)-1-((2H-tetrazol-5-yl)methoxy)-2-(((2R,3S,4R,5S)-5-(2-chloro-4-((cyclobutylmethyl)amino)pyrrolo[2,1-f][1,2,4]triazin-7-yl)-3,4-dihydroxytetrahydrofuran-2-yl)methoxy)-3-hydroxypropan-2-yl)phosphonic acid]
18 | ≤ 0.5 nM | O=P(O)(O)[C@@](CO)(COCc1nn[nH]n1)OC[C@H]1O[C@@H](c2ccc3c(NCC4CC4)nc(Cl)nn23)[C@H](O)[C@@H]1O [Example 49, ((S)-1-((2H-tetrazol-5-yl)methoxy)-2-(((2R,3S,4R,5S)-5-(2-chloro-4-((cyclopropylmethyl)amino)pyrrolo[2,1-f][1,2,4]triazin-7-yl)-3,4-dihydroxytetrahydrofuran-2-yl)methoxy)-3-hydroxypropan-2-yl)phosphonic acid]
19 | 1 to 100 nM | CC(CO)(OC[C@H]1O[C@@H](c2ccc3c(NC4CCCC4)nc(Cl)nn23)[C@H](O)[C@@H]1O)P(=O)(O)O (stereo partly drawn) [Example 19, (2-(((2R,3S,4R,5S)-5-(2-chloro-4-(cyclopentylamino)pyrrolo[2,1-f][1,2,4]triazin-7-yl)-3,4-dihydroxytetrahydrofuran-2-yl)methoxy)-1-hydroxypropan-2-yl)phosphonic acid]
